PubChem BioAssay (NCI)
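Step 1: Grow cells in 96-well plates. Step 2: Expose to compound for 48 hours at 5 concentrations. Step 3: Interpolate endpoints linearly; if unreached, use highest concentration. GI50 = concentration required for 50% inhibition of growth. TGI is the concentration that stops growth completely.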

System: SN12K1 renal
Test: growth of human tumour cells (NCI), 48 h

For `CC[C@H]1CN2CCc3cc(OC)c(OC)cc3[C@@H]2C[C@@H]1C[C@H]1NCCc2cc(O)c(OC)cc21`, the GI50 was 0.025 µM and the TGI was 0.191 µM.
